Tests used:
Type in all cases: biochemical
[1] = molecular target: CDK2 (Homo sapiens (Human), UniProt P24941); assay: Invitrogen kinase assay, inhibition of CDK2; settings: co-factor cyclin A; read-out: IC50 against CDK2
Protocol: (§1) Compounds of the disclosure were assayed using Invitrogen CDK7 assay against a variety of kinases. Exemplary results are presented as IC50 values (see Table 1 and Table 2). The co-factors used for each kinase in the assays were as follows: CDK7: cyclin H and MNAT1; CDK2: cyclin A; CDK9: cyclin T1.

[2] = molecular target: CDK9 (Homo sapiens (Human), UniProt P50750); assay: Invitrogen kinase assay, inhibition of CDK9; settings: co-factor cyclin T1; read-out: IC50 against CDK9
Protocol: as §1

[3] = molecular target: CDK7 (Homo sapiens (Human), UniProt P50613); assay: Invitrogen CDK7 assay, inhibition of CDK7; settings: co-factors cyclin H and MNAT1; read-out: IC50 against CDK7
Protocol: as §1

Sequence of CDK9 (P50750 whole entry): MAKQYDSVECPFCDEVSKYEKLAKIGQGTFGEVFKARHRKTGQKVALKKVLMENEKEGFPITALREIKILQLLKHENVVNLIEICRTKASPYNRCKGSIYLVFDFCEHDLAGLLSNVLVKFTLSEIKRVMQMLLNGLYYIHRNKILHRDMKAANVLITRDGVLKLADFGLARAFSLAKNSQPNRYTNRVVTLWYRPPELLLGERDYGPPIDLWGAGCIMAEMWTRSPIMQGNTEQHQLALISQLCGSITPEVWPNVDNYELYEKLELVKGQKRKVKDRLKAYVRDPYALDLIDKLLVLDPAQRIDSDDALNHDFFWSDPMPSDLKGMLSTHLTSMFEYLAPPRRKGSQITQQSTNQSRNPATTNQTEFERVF
Sequence of CDK9 (O60563 whole entry partner): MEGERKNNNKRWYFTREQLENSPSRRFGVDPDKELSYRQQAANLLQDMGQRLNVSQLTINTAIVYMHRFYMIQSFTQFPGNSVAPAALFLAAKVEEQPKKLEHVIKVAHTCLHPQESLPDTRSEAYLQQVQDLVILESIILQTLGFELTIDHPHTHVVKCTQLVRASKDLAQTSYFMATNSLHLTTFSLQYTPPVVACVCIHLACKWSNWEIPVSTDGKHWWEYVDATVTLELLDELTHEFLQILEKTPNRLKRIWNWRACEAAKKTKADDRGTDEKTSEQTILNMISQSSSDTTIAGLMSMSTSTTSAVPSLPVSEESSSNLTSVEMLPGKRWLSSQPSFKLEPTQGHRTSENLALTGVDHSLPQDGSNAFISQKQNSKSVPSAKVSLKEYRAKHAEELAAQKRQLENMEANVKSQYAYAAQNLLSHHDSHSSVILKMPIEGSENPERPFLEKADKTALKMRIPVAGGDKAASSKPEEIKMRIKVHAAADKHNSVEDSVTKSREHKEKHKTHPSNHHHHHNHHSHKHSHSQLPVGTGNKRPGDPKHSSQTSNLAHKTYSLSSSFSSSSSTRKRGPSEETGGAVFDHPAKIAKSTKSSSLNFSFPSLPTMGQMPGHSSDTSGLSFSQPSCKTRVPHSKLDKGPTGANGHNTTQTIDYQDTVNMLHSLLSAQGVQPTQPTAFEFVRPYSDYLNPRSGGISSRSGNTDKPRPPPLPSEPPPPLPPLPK
Sequence of CDK7 (P50613 whole entry): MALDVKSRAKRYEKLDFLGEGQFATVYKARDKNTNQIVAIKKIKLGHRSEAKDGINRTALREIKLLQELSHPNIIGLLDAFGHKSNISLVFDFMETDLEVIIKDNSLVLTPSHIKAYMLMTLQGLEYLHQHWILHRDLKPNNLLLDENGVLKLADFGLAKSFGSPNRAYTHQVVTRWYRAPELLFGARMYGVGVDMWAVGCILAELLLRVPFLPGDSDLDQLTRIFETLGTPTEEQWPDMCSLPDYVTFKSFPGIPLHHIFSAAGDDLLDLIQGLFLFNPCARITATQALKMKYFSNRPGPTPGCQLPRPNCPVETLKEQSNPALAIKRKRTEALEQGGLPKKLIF
Sequence of CDK7 (P51946 whole entry partner): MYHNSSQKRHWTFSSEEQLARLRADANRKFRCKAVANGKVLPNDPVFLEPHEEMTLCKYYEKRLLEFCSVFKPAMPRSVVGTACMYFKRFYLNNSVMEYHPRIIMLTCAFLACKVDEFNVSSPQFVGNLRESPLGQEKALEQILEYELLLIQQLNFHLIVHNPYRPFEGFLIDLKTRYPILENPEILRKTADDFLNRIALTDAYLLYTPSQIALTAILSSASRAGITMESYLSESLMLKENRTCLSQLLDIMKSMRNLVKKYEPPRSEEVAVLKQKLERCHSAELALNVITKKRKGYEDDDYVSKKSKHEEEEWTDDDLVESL
Sequence of CDK7 (P51948 whole entry partner): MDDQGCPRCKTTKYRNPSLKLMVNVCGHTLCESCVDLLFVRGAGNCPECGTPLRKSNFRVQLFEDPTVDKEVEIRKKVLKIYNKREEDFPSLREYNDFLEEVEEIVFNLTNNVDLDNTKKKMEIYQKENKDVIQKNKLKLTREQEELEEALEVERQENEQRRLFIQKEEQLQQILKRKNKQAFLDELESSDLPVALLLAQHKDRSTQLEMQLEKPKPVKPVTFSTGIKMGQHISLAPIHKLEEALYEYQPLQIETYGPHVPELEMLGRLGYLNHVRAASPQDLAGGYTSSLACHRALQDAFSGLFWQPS

Row | IC50 [1] [nM] | IC50 [2] [nM] | IC50 [3] [nM] | Compound
1 | > 370 | 4010 | 12.8 | C=CC(=O)Nc1ccc(C(=O)Nc2n[nH]c3c2CN(C(=O)N[C@H](CN(C)C)C2CCOCC2)C3(C)C)cc1 [Compound 205, (S)-3-(4-acrylamidobenzamido)-N-(2-(dimethylamino)-1-(tetrahydro-2H-pyran-4-yl)ethyl)-6,6-dimethyl-4,6-dihydropyrrolo[3,4-c]pyrazole-5(1H)-carboxamide]
2 | > 10000 | > 10000 | 732 | C=CC(=O)Nc1cnc(Nc2n[nH]c3c2CN(C(=O)N[C@H](CN(C)C)C2CCOCC2)C3(C)C)nc1 [Compound 206, (S)-3-((5-acrylamidopyrimidin-2-yl)amino)-N-(2-(dimethylamino)-1-(tetrahydro-2H-pyran-4-yl)ethyl)-6,6-dimethyl-4,6-dihydropyrrolo[3,4-c]pyrazole-5(1H)-carboxamide]
3 | 3410 | > 10000 | 15.4 | C=CC(=O)Nc1ccc(C(=O)Nc2n[nH]c3c2CN(C(=O)NC2CN(C)Cc4ccccc42)C3(C)C)cc1 (stereo not drawn) [Compound 207, 3-(4-acrylamidobenzamido)-6,6-dimethyl-N-(2-methyl-1,2,3,4-tetrahydroisoquinolin-4-yl)-4,6-dihydropyrrolo[3,4-c]pyrazole-5(1H)-carboxamide]
4 | 4520 | > 10000 | 10.8 | CN(C)C[C@@H](NC(=O)N1Cc2c(Nc3ccnc(C(F)(F)F)n3)n[nH]c2C1(C)C)C1CCOCC1 [Compound 208, (S)—N-(2-(dimethylamino)-1-(tetrahydro-2H-pyran-4-yl)ethyl)-6,6-dimethyl-3-((2-(trifluoromethyl)pyrimidin-4-yl)amino)-4,6-dihydropyrrolo[3,4-c]pyrazole-5(1H)-carboxamide]
5 | > 10000 | > 10000 | 3310 | C=CC(=O)Nc1ccc(Nc2n[nH]c3c2CN(C(=O)N[C@H](CN(C)C)C2CCOCC2)C3(C)C)cc1 [Compound 209, (S)-3-((4-acrylamidophenyl)amino)-N-(2-(dimethylamino)-1-(tetrahydro-2H-pyran-4-yl)ethyl)-6,6-dimethyl-4,6-dihydropyrrolo[3,4-c]pyrazole-5(1H)-carboxamide]
6 | 161 | 1740 | 48.4 | C=CC(=O)Nc1ccc(C(=O)Nc2n[nH]c3c2CN(C(=O)N[C@H]2CCCN(C)C2)C3(C)C)cc1 [Compound 210, (S)-3-(4-acrylamidobenzamido)-6,6-dimethyl-N-(1-methylpiperidin-3-yl)-4,6-dihydropyrrolo[3,4-c]pyrazole-5(1H)-carboxamide]

Continued, molecule first:

Row | Compound | IC50 [1] [nM] | IC50 [2] [nM] | IC50 [3] [nM]
7 | C=CC(=O)Nc1ccc(C(=O)Nc2n[nH]c3c2CN(C(=O)NC2(CN(C)C)CC2)C3(C)C)cc1 [Compound 065, 3-(4-acrylamidobenzamido)-N-(1-((dimethylamino)methyl)cyclopropyl)-6,6-dimethyl-4,6-dihydropyrrolo[3,4-c]pyrazole-5(1H)carboxamide] | > 10000 | > 10000 | 61.1
8 | C=CC(=O)Nc1ccc(C(=O)Nc2n[nH]c3c2CN(C(=O)NC(CN(C)C)C2CCOC2)C3(C)C)cc1 (stereo not drawn) [Compound 079, 3-(4-acrylamidobenzamido)-N-(2-(dimethylamino)-1-(tetrahydrofuran-3-yl)ethyl)-6,6-dimethyl-4,6-dihydropyrrolo[3,4-c]pyrazole-5(1H)-carboxamide] | > 10000 | 1060 | 190
9 | Cc1nc(Nc2n[nH]c3c2CN(C(=O)N[C@H](CN(C)C)C2CCOCC2)C3(C)C)c2ccsc2n1 [Compound 200, (S)—N-(2-(dimethylamino)-1-(tetrahydro-2H-pyran-4-yl)ethyl)-6,6-dimethyl-3-((2-methylthieno[2,3-d]pyrimidin-4-yl)amino)-4,6-dihydropyrrolo[3,4-c]pyrazole-5(1H)-carboxamide] | > 10000 | > 10000 | 18.5
10 | Cc1nc(Nc2n[nH]c3c2CN(C(=O)N[C@H](CN(C)C)C2CCOCC2)C3(C)C)c2sccc2n1 [Compound 201, (S)—N-(2-(dimethylamino)-1-(tetrahydro-2H-pyran-4-yl)ethyl)-6,6-dimethyl-3-((2-methylthieno[3,2-d]pyrimidin-4-yl)amino)-4,6-dihydropyrrolo[3,4-c]pyrazole-5(1H)-carboxamide] | > 10000 | > 10000 | 39.1
11 | C=CC(=O)Nc1ccc2c(Nc3n[nH]c4c3CN(C(=O)N[C@H](CN(C)C)C3CCOCC3)C4(C)C)nccc2c1 [Compound 202, (S)-3-((6-acrylamidoisoquinolin-1-yl)amino)-N-(2-(dimethylamino)-1-(tetrahydro-2H-pyran-4-yl)ethyl)-6,6-dimethyl-4,6-dihydropyrrolo[3,4-c]pyrazole-5(1H)-carboxamide] | > 1110 | > 10000 | 69
12 | C=CC(=O)Nc1cccc2c(Nc3n[nH]c4c3CN(C(=O)N[C@H](CN(C)C)C3CCOCC3)C4(C)C)nccc12 [Compound 203, (S)-3-((5-acrylamidoisoquinolin-1-yl)amino)-N-(2-(dimethylamino)-1-(tetrahydro-2H-pyran-4-yl)ethyl)-6,6-dimethyl-4,6-dihydropyrrolo[3,4-c]pyrazole-5(1H)-carboxamide] | > 10000 | > 10000 | 214
13 | C=CC(=O)Nc1ccc(Nc2n[nH]c3c2CN(C(=O)N[C@H](CN(C)C)C2CCOCC2)C3(C)C)nc1 [Compound 204, (S)-3-((5-acrylamidopyridin-2-yl)amino)-N-(2-(dimethylamino)-1-(tetrahydro-2H-pyran-4-yl)ethyl)-6,6-dimethyl-4,6-dihydropyrrolo[3,4-c]pyrazole-5(1H)-carboxamide] | > 10000 | > 10000 | 407

Reference: patent US12281126B2, “Inhibitors of cyclin-dependent kinase 7 and uses thereof” (Dana-Farber Cancer Institute, Inc., priority 2018, dated 2025)
